Results taken from patent EP0626016B1, “[…] […]” (BRITISH TECHNOLOGY GROUP LIMITED, priority 1992, dated 1993).

How the values were obtained:
[1] = target: T1, horseradish peroxidase Type VIA (Armoracia rusticana, UniProt P00433); test: Enhanced chemiluminescent assay for peroxide with 4-biphenylboronic acid (Example 8a); assay type: biochemical; settings: 10µl enhancer (1:20 dilution of 1mg/ml)
T1 construct: purchased Sigma Chemical Co
T1 sequence (P00433 31-338): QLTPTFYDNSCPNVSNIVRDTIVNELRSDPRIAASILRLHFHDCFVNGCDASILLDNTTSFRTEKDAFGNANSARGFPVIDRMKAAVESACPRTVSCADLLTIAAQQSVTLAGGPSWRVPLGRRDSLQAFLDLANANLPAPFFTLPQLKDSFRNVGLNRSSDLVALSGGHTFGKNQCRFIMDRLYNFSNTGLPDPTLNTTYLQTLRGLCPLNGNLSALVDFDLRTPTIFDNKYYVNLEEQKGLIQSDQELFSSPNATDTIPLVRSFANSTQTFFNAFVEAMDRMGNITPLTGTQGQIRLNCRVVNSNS
Protocol: The assay reagent consisted of the following reagents: 10µl 4-biphenylboronic acid (1:20 dilution of a 1mg/ml stock in DMSO), 10µl horseradish peroxidase (1:500,000 dilution of a 1mg/ml stock Type VIA in 0.1 mol/l Tris buffer pH 8.6) and 100µl luminol (0.025 g/l in 0.1 mol/l Tris buffer pH 8.6). These were mixed together and the light emission measured. A 10µl sample of a hydrogen peroxide solution (dilutions of a stock, 31µl 30% w/v hydrogen peroxide/ml in Tris buffer) was added, the contents of the assay tube mixed and the light emission recorded.
From Table 9 it can be seen that there was a dose-dependent increase in light output up to 2.4µmoles of peroxide.

[2] = target: T1, horseradish peroxidase Type VIA; test: Enhanced chemiluminescent assay for luminol with 4-biphenylboronic acid (Example 8b); assay type: biochemical; settings: 10µl enhancer (1:20 dilution of 1mg/ml)
Protocol: The assay reagent consisted of the following reagents: 10µl 4-biphenylboronic acid (1:20 dilution of a 1mg/ml stock in DMSO), 10µl horseradish peroxidase (1:500,000 dilution of a lmg/ml stock Type VIA in 0.1 mol/l Tris buffer pH 8.6) and 100µl hydrogen peroxide solution (31µl 30% w/v hydrogen peroxide diluted in 100ml Tris buffer). These were mixed together and the light emission measured. A 10µl sample of a luminol solution (dilutions of a 0.25g/l in 0.1 mol/l Tris buffer pH 8.6 stock) was added, the contents of the assay tube mixed and the light emission recorded.
From Table 10 it can be seen that there was a dose-dependent increase in light output at all concentrations of luminol tested.

HRP Type VIA = target: T2, HRP Type VIA (Armoracia rusticana, UniProt P00433)
T2 sequence (P00433 31-338): T1 sequence (P00433 31-338)

## OB(O)c1ccc(-c2ccccc2)cc1 [Compound 1011, 4-biphenylboronic acid]
[1]; Hydrogen peroxide 0 µmoles
  Light emission at 5 minutes: 525
[1]; Hydrogen peroxide 0.00024 µmoles
  Light emission at 5 minutes: 659
[1]; Hydrogen peroxide 0.0024 µmoles
  Light emission at 5 minutes: 1,500
[1]; Hydrogen peroxide 0.024 µmoles
  Light emission at 5 minutes: 40,682
[1]; Hydrogen peroxide 0.24 µmoles
  Light emission at 5 minutes: 584,638
[1]; Hydrogen peroxide 2.4 µmoles
  Light emission at 5 minutes: 620,551
[1]; Hydrogen peroxide 24 µmoles
  Light emission at 5 minutes: 339,291
[2]; Luminol 0 µmoles
  Light emission at 10 minutes: 54
[2]; Luminol 0.00125 µmoles
  Light emission at 10 minutes: 145
[2]; Luminol 0.0125 µmoles
  Light emission at 10 minutes: 620
[2]; Luminol 0.125 µmoles
  Light emission at 10 minutes: 5,161
[2]; Luminol 1.25 µmoles
  Light emission at 10 minutes: 55,873
[2]; Luminol 12.5 µmoles
  Light emission at 10 minutes: 358,184
[2]; Luminol 125 µmoles
  Light emission at 10 minutes: 834,089
HRP Type VIA
  (a) Decrease in background (without HRP with test cpd.): Y
  (b) Increase in signal (with HRP, with test cpd.): Y
  (c) Increase in signal: background ratio: Y (key: Column (c) shows whether there was an increase in the signal:background ratio by over 25% of the control value (Y = yes; N = no)
